Test results taken from PubChem BioAssay AID2060492 (Molecular Pharmacology Branch, DTP, NCI, 2025).

Tested on: 695427-040-R-J1-PDC complex spheroids, viability percent T/C
Assay: Anticancer human tumor 695427-040-R-J1-PDC patient-derived colon adenocarcinoma cell line growth inhibition [GQUAD]
Details: for IC50: curve of first compound; for viability, T/C: stronger effect = lower value
From the text: DNA G-quadruplex Stabilizer Agents in Combinations in Complex Spheroids
A high-throughput screen of multi-cell type tumor spheroids was designed to identify active combinations of DNA G-quadruplex stabilizer agents and targeted small molecules. Complex spheroids include a stromal component modeled by human endothelial cells (HUVEC) and fibroblasts modeled by human mesenchymal stem cells (MSCs). The concentration ranges selected for each drug and investigational agent were based upon clinically achievable concentrations if the clinical Cmax of the agent was known.
Compounds. The drugs and investigational agents: pidnarulex (CX-5461; NSC782164), APTO-253 (NSC789042), BRACO-19 (NSC847499), peposertib (NSC802822), ceralasertib (NSC780249), elimusertib (NSC800525), camonsertib (NSC841442), AZD-1390 (NSC803789), olaparib (NSC753686), talazoparib (NSC767125), ART-558 (NSC835418), sotorasib (NSC818433), MRTX-1133 (NSC836407), SN-38 (NSC673596), topotecan (NSC609699), etoposide (NSC141540), doxorubicin (NSC123127), gemcitabine (NSC613327), 5-fluorouracil (NSC19893), paclitaxel (NSC125973), vemurafenib (NSC761431), panobinostat (NSC761190), R-306465 (JNJ-16241199; NSC773264), adavosertib (NSC754352), TP-3654 (NSC805149), carboplatin (NSC241240), KSQ-4279 (NSC840948), and staurosporine (NSC755774) were obtained from the National Cancer Institute (NCI) Developmental Therapeutics Program Chemical Repository (34). The FDA-approved anticancer drug set is available from the NCI Developmental Therapeutics Program. […] The stock solutions were prepared in dimethyl sulfoxide (DMSO, Sigma-Aldrich, St. Louis, MO, cat. D2650) at 800-fold the tested concentration and stored at -70 degrees C prior to their use. All drugs and investigational agents were tested over a range starting from a high concentration at or near the clinical Cmax and decreasing in half-log increments. If the clinical Cmax for an agent had not been determined, the highest concentration tested was 10 microM.
2.3 Cell Culture. All cells were maintained in an incubator at 37 degrees C and 5% CO2 with 95% humidity. The PDC lines were cultured according to standard operating procedures established by the NCI PDMR. All PDCs were thawed and cultured in Matrigel-coated flasks prepared with a working solution of 1X Ham's F-12 nutrient mix, without supplementation (Invitrogen, cat. 11765054), 100 U/mL penicillin-streptomycin (Invitrogen, cat. 15140122), and 2.5% Matrigel (Corning Inc., cat. 354248) for the first three passages. The 857933-349-R-J2-PDC line was cultured in 6C/Colon 1B media, which includes advanced DMEM/F-12 (Thermo Fisher Scientific, cat. 12634028), 10 mM HEPES (Thermo Fisher Scientific, cat. 15630080), 1X GlutaMAX supplement (Thermo Fisher Scientific, cat. 35050061), 0.1 mg/mL primocin (InvivoGen, cat. ant-pm-2), 10% defined fetal bovine serum, heat inactivated (HyClone Laboratories Inc., cat. SH30070.03HI), 50% L-WRN conditioned media (ATCC, cat. CRL-3276), 1.25 mM N-Acetyl-L-cysteine (Sigma-Aldrich, cat. A9165), 10 mM nicotinamide (Sigma-Aldrich, cat. N0636), 1X B-27 supplement (Thermo Fisher Scientific, cat. 17504044), 1X N-2 supplement (Thermo Fisher Scientific, cat. 17502048), 10 microM Y-27632 dihydrochloride (Tocris Bioscience, cat. 1254), and 50 ng/mL human EGF recombinant protein (Thermo Fisher Scientific, cat. PHG0311). The 485176-168-R4-J1-PDC line was cultured in Panc media, which includes all 6C/Colon 1B media components plus 100 ng/mL human FGF-10 (Thermo Fisher Scientific, cat. 100-26), 500 nM SB-431542 (Selleckchem, cat. S1067), and gastrin (Tocris, cat. 3006).
[…]

[1] = second compound 0.0316 µM, first compound 0.0316 µM
[2] = second compound 0.0316 µM, first compound 0.1 µM
[3] = second compound 0.0316 µM, first compound 0.316 µM
[4] = second compound 0.0316 µM, first compound 1 µM
[5] = second compound 0.0316 µM, first compound 3.16 µM
[6] = second compound 0.0316 µM, first compound 10 µM
[7] = second compound 0.1 µM, first compound 0.0316 µM
[8] = second compound 0.1 µM, first compound 0.1 µM
[9] = second compound 0.1 µM, first compound 0.316 µM
[10] = second compound 0.1 µM, first compound 1 µM
[11] = second compound 0.1 µM, first compound 3.16 µM
[12] = second compound 0.1 µM, first compound 10 µM
[13] = second compound 0.316 µM, first compound 0.0316 µM
[14] = second compound 0.316 µM, first compound 0.1 µM
[15] = second compound 0.316 µM, first compound 0.316 µM
[16] = second compound 0.316 µM, first compound 1 µM
[17] = second compound 0.316 µM, first compound 3.16 µM
[18] = second compound 0.316 µM, first compound 10 µM
[19] = second compound 1 µM, first compound 0.0316 µM
[20] = second compound 1 µM, first compound 0.1 µM
[21] = second compound 1 µM, first compound 0.316 µM
[22] = second compound 1 µM, first compound 1 µM
[23] = second compound 1 µM, first compound 3.16 µM
[24] = second compound 1 µM, first compound 10 µM
[25] = second compound 3.16 µM, first compound 0.0316 µM
[26] = second compound 3.16 µM, first compound 0.1 µM
[27] = second compound 3.16 µM, first compound 0.316 µM
[28] = second compound 3.16 µM, first compound 1 µM
[29] = second compound 3.16 µM, first compound 3.16 µM
[30] = second compound 3.16 µM, first compound 10 µM
[31] = second compound 10 µM, first compound 0.0316 µM
[32] = second compound 10 µM, first compound 0.1 µM
[33] = second compound 10 µM, first compound 0.316 µM
[34] = second compound 10 µM, first compound 1 µM
[35] = second compound 10 µM, first compound 3.16 µM
[36] = second compound 10 µM, first compound 10 µM
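Also: spheroids exposed to compounds for seven days before readout.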

Molecule C#Cc1c(F)ccc2cc(O)cc(-c3ncc4c(N5CC6CCC(C5)N6)nc(OCC56CCCN5CC(F)C6)nc4c3F)c12 (centres undefined) + CN(C)c1ccc(Nc2c3ccc(NC(=O)CCN4CCCC4)cc3nc3cc(NC(=O)CCN4CCCC4)ccc23)cc1 has an IC50 (second compound 0.0316 µM) greater than 10000 nM, an IC50 (second compound 0.1 µM) greater than 10000 nM and an IC50 (second compound 0.316 µM) greater than 10000 nM. It also gave an IC50 (second compound 1 µM) greater than 10000 nM, an IC50 (second compound 3.16 µM) greater than 10000 nM and an IC50 (second compound 10 µM) greater than 10000 nM. It also gave a viability, T/C [1] of 101%, a viability, T/C [2] of 102% and a viability, T/C [3] of 100%. The viability, T/C [4] was 98.9%, the viability, T/C [5] was 98.4% and the viability, T/C [6] was 83.5%. It also gave a viability, T/C [7] of 106%, a viability, T/C [8] of 95.4% and a viability, T/C [9] of 98%. The viability, T/C [10] was 94%, the viability, T/C [11] was 97.5% and the viability, T/C [12] was 83.3%. The viability, T/C [13] was 96.4%, the viability, T/C [14] was 106% and the viability, T/C [15] was 94.6%. It also gave a viability, T/C [16] of 89.5%, a viability, T/C [17] of 99.1% and a viability, T/C [18] of 80.6%. It also gave a viability, T/C [19] of 100%, a viability, T/C [20] of 102% and a viability, T/C [21] of 106%. The viability, T/C [22] was 101%, the viability, T/C [23] was 91.8% and the viability, T/C [24] was 77.5%. It also gave a viability, T/C [25] of 101%, a viability, T/C [26] of 91% and a viability, T/C [27] of 92.9%. The viability, T/C [28] was 87.7%, the viability, T/C [29] was 86.2% and the viability, T/C [30] was 80.7%. For the same molecule, the viability, T/C [31] was 87.1%, the viability, T/C [32] was 91.8% and the viability, T/C [33] was 86.1%. It also gave a viability, T/C [34] of 87.4%, a viability, T/C [35] of 82.4% and a viability, T/C [36] of 62.4%.
Work on CC(C)(O)C1CCC(Nc2ccc3ncc(-c4cccc(C(F)(F)F)c4)n3n2)CC1 (centres undefined) + CN(C)c1ccc(Nc2c3ccc(NC(=O)CCN4CCCC4)cc3nc3cc(NC(=O)CCN4CCCC4)ccc23)cc1 yielded an IC50 (second compound 0.0316 µM) of 1590 nM, an IC50 (second compound 0.1 µM) of 1670 nM and an IC50 (second compound 0.316 µM) of 1610 nM. For the same molecule, the IC50 (second compound 1 µM) was 1590 nM, the IC50 (second compound 3.16 µM) was 1530 nM and the IC50 (second compound 10 µM) was 1470 nM. For the same molecule, the viability, T/C [1] was 102%, the viability, T/C [2] was 91.7% and the viability, T/C [3] was 87.4%. It also gave a viability, T/C [4] of 73.4%, a viability, T/C [5] of 15.2% and a viability, T/C [6] of 14.3%. The viability, T/C [7] was 106%, the viability, T/C [8] was 97% and the viability, T/C [9] was 108%. The viability, T/C [10] was 78.8%, the viability, T/C [11] was 14.7% and the viability, T/C [12] was 12.1%. For the same molecule, the viability, T/C [13] was 105%, the viability, T/C [14] was 96.9% and the viability, T/C [15] was 94.9%. It also gave a viability, T/C [16] of 74%, a viability, T/C [17] of 15.2% and a viability, T/C [18] of 16.6%. It also gave a viability, T/C [19] of 95%, a viability, T/C [20] of 100% and a viability, T/C [21] of 90.9%. For the same molecule, the viability, T/C [22] was 74.9%, the viability, T/C [23] was 13% and the viability, T/C [24] was 13.6%. It also gave a viability, T/C [25] of 91.9%, a viability, T/C [26] of 92.2% and a viability, T/C [27] of 89.5%. It also gave a viability, T/C [28] of 71.3%, a viability, T/C [29] of 13.2% and a viability, T/C [30] of 11.4%. It also gave a viability, T/C [31] of 84.7%, a viability, T/C [32] of 81.3% and a viability, T/C [33] of 75.9%. It also gave a viability, T/C [34] of 69.4%, a viability, T/C [35] of 11.8% and a viability, T/C [36] of 10%.
